# Earlier results, collected in US20050152989A1, “Method for treating irritable bowel syndrome” (Braintree Laboratories, Inc., priority 2003, published 2005).
# Columns and labels:
# [1] = system: constipation-predominant IBS; conditions: Case Study 2, patient history before the formulation
smiles,measurement,setting,value
Cc1[nH]cnc1CN1CCc2c(c3ccccc3n2C)C1=O [alosetron],toxicity limiting use,IBS; diarrhea-predominant IBS,severely limited by its toxicity
COc1cc(N)c(Cl)cc1C(=O)NC1CCN(CCCOc2ccc(F)cc2)CC1OC (stereo not drawn) [cisapride],outcome of earlier treatment regimens tried by the patient,[1],without success
[H]/N=C(/NCCCCC)N/N=C/c1c[nH]c2ccc(OC)cc12 [tegaserod],patients with significant improvement in IBS symptoms compared with placebo,IBS; constipation-predominant IBS,about one of eight
